{"source": "patent US8981053B2", "about": "“Molecules specifically binding pancreatic beta cells biomarkers” (Universite de Mons, priority 2011, dated 2015)", "molecules": {"B1": {"name": "selected M13 phage clone carrying 2 peptides (peptide)", "peptide 1": "LPLSRHY", "peptide 2": "NTHHTSM"}}, "key": {"[1]": {"target": "T1, FXYD2-gamma-a regulatory subunit expressed by CAPAN-2 cells (Homo sapiens, UniProt P54710)", "T1 construct": "the FXYD2-gamma-a regulatory subunit expressed by CAPAN-2 cells; endogenous in cells; host or cells: CAPAN-2 cells (PANC1 cells as comparison)", "T1 sequence (P54710 whole entry)": "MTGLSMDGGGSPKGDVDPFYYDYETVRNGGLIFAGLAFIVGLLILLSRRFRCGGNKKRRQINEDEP", "assay": "Immunocytochemistry on CAPAN2 and PANC1 cells", "type": "cell-based", "conditions": "CAPAN2 cells versus PANC1 cells", "experimental": "(§1) The specificity of P88, P89, P90 and a polyclonal antibody against the N-terminal sequence of FXYD2-gamma-a protein to the FXYD2-gamma-a regulatory subunit expressed by CAPAN-2 cells was checked by immunocytochemistry and immunofluorescence tests.\nImmunocytochemistry tests were performed using the biotinylated peptides. An anti-biotine antibody was used and was recognized by a secondary antibody coupled to the peroxidase. The polyclonal antibody against the N-terminal sequence of FXYD2-gamma-a protein to the FXYD2-gamma-a was detected using a secondary biotinylated antibody that fixes a complex containing streptavidin, biotin and peroxidase. The latter gives a brown color in the presence of 3,3′-diaminobenzidine (DAB)."}, "[2]": {"target": "FXYD2-gamma-a subunit (Homo sapiens, UniProt P54710)", "sequence (P54710 whole entry)": "as above", "assay": "Dissociation constant (Kd) determination of phage display clone and synthetized peptides", "conditions": "binding to FXYD2-gamma-a subunit", "description": "Commercially available peptide libraries were screened and peptides binding the FXYD2-gamma-a subunit were retained for further analysis. The FXYD2-gamma-a is a regulating subunit of the Na—K-ATPase that contains 66 amino acids, from which 11 are specific to human beta-cells (Flamez D et al. DOI 10.1007/s00125-010-1714-z). Commercially available linear heptapeptide libraries were screened via M 13 phage display methodology. After 4 screening rounds, 42 clones were selected for further characterization: sequencing and dissociation constant (Kd) determination. […] The latter were synthetized either separately (called P89 and P90) or fused via a short sequence of the pill protein (called P88). All three synthetized peptides were further tested. […]"}, "[3]": {"system": "human pancreatic Langerhans islets", "assay": "Immunohistochemistry on human pancreatic histological sections", "type": "cell-based", "experimental": "(§2) A co-localization of peptide P88, insulin and glucagon was performed on human pancreatic histological sections using immunohistochemistry and immunofluorescence tests. Insulin is a hormone produced by the beta cells of Langerhans islets while glucagon is produced by the alpha cells of the same islets.\nThe marking is the same as the one obtained when the antibody anti-insulin was used (FIG. 4).\nIn other immunohistochemistry tests, the anti-FXYD2-gamma-a polyclonal antibody was used. […] Therefore, P88 is highly specific to the pancreatic beta cells FXYD2-gamma-a biomarker."}, "[4]": {"system": "human pancreatic beta cells", "assay": "Immunofluorescence co-localization on human pancreatic histological sections", "type": "cell-based", "experimental": "as §2\nImmunofluorescence tests were performed on human pancreatic histological sections such as P88 was detected together with insulin or glucagon. In another test, insulin was detected together with the polyclonal antibody against the N-terminal sequence of FXYD2-gamma-a. Insulin (specific of beta cells) was detected with a primary anti-insulin antibody which was detected using a secondary antibody coupled to Texas Red. Glucagon was detected with a primary anti-glucagon antibody which was also detected using a secondary antibody coupled to Texas Red. The latter gives red color to the antigenic sites. Biotinylated P88 was detected using a primary antibody anti-biotin and a secondary antibody coupled to fluorescein. The polyclonal antibody against the N-terminal sequence of FXYD2-gamma-a was also detected using a secondary antibody coupled to fluorescein. Antigenic sites marked by fluorescein are visualized in green color. DAPI was also used in order to stain the cells nuclei in blue. Pictures obtained with each staining (red, green and blue) were superimposed."}, "[5]": {"target": "T1, FXYD2-gamma-a regulatory subunit expressed by CAPAN-2 cells", "assay": "Immunofluorescence on CAPAN2 and PANC1 cells with ImageJ semi-quantitative analysis (RRFL)", "type": "cell-based", "description": "as §1\nEach secondary antibody described above was coupled to a fluorophore such as fluorescein which gives a green color at a certain wavelength. DAPI (4′,6-diamidino-2-phenylindole) was also used in order to stain the cell nuclei in blue. This allowed us to compare the localization of the blue and the green coloration. […] Therefore, P88 interacts specifically with CAPAN2 cells and is thus specific to the FXYD2-gamma-a biomarker.\nThe images obtained by immunofluorescence test were analyzed using ImageJ software in order to semi-quantitatively evaluate the fluorescent labeling. The following equation was used to calculate the relative rate of fluorescent labeling (RRFL): RRFL=(SIsample/Ncells)/(SIblanc/Ncells) Wherein SI is the signal intensity, N is the number of cells and blanc is the negative control sample.\nThe percentage of RRFL obtained when P88 was used at two different concentrations (5 μM and 10 μM) was determined compared to the RRFL obtained when the polyclonal antibody against the N-terminal sequence of FXYD2-gamma-a was used (FIG. 3 B). The ratio between the RRFL measured in CAPAN2 cells and the RRFL measured in PANC1 cells was also determined (FIG. 3 C). […] The ratio CAPAN2/PANC1 confirmed the labeling specificity of P88 compared to the used polyclonal antibody."}, "[6]": {"system": "CAPAN2 cells", "assay": "MRI of CAPAN2 cells labeled with contrast agents", "type": "cell-based, human", "conditions": "for MRI labeling of CAPAN2 cells: 2×10^6 to 0.1×10^6 cells per 100 μl; for transverse relaxation rates of labeled CAPAN2 cells compared to USPIO-PEG: independent from the concentration of CAPAN2 cells", "experimental": "(§3) CAPAN2 cells were labeled with USPIO nanoparticles coupled to P88 or with carboxy silane coated iron oxide nanoparticles coupled to P88. USPIO-polyethylene glycol (PEG) were used as negative contrast agent. Labeled cells were visualized by MRI and the concentration of contrast agents bound to the cells was determined by iron dosage.\nCAPAN2 cells were used with different concentrations ranging from 2×10^6 cell per 100 μl to 0.1×10^6 cells per 100 μl corresponding respectively to the beta cell concentration in healthy pancreas and in a pancreas with diabetes. […] The labeling was also clearly observed with the lowest CAPAN2 cell concentration."}, "[7]": {"system": "CAPAN2 cells", "assay": "Iron dosage of CAPAN2 cells labeled with contrast agents", "type": "cell-based, human", "conditions": "contrast agent 1 mM, 2 mM and 3 mM", "experimental": "as §3\nThis confirms the specificity of P88 to the pancreatic beta cells biomarker FXYD2-gamma-a and the efficacy of using the P88 coupled to a contrast agent in MRI."}, "[8]": {"system": "human Langerhans islets", "assay": "MRI of human Langerhans islets labeled with contrast agents", "type": "cell-based", "conditions": "for transverse relaxation rates of labeled human Langerhans islets compared to USPIO-PEG: independent from concentration and purity of islets", "experimental": "Contrast agents USPIO and carboxy silane coated iron oxide nanoparticles coupled to the peptide P88 were tested for their interaction with the human Langerhans islets and compared to the use of USPIO-PEG contrast agent."}, "[9]": {"system": "beta cells of Langerhans islets", "assay": "Co-localization of contrast agent labeled Langerhans islets with insulin (anti-PEG antibody)", "type": "cell-based, human", "conditions": "fluorescein, insulin Texas red", "experimental": "Co-localization tests were performed where antibodies anti-PEG were added to the Langrehans islets labeled with USPIO-P88 nanoparticles, the Langrehans islets labeled with carboxy silane coated iron oxide nanoparticles coupled to the peptide P88 and to the Langrehans islets labeled with USPIO-PEG. A secondary antibody that recognizes the anti-PEG antibody and coupled to the fluorescein was also used which created a green fluorescence.\nInsulin was labeled with primary anti-insulin antibody and a secondary antibody coupled to Texas red which created a red fluorescence."}, "[10]": {"target": "FXYD2-gamma-a subunit (target of the phage display screening and Kd determination) (human) (UniProt P54710)", "sequence (P54710 whole entry)": "as above", "assay": "synthetic peptide; method not stated"}, "[11]": {"target": "FXYD2-gamma-a regulatory subunit expressed by CAPAN-2 cells and human pancreatic beta cells (human) (UniProt P54710)", "sequence (P54710 whole entry)": "as above", "assay": "immunofluorescence on CAPAN2 cells, ImageJ semi-quantitative analysis, P88 at 5 µM"}, "[12]": {"target": "FXYD2-gamma-a regulatory subunit expressed by CAPAN-2 cells and human pancreatic beta cells (human) (UniProt P54710)", "assay": "immunofluorescence on CAPAN2 cells, ImageJ semi-quantitative analysis, P88 at 10 µM"}, "[13]": {"target": "FXYD2-gamma-a subunit (target of the phage display screening and Kd determination) (human) (UniProt P54710)", "assay": "phage clone characterisation after M13 phage display screening; method not stated"}}, "note": "Where no end group is shown, it is not given here.", "data": [{"molecule": "LPLSRHY [P89, LPLSRHY]", "values": [{"measurement": "specificity of interaction (brown DAB coloration)", "setting": "[1]", "result": "less specific compared to P88"}]}, {"molecule": "LPLSRHYGGGSVPFYSHSNTHHTSM [P88]", "values": [{"measurement": "Kd", "setting": "[2]", "result": 1890, "unit": "nM"}, {"measurement": "marking of pancreatic Langerhans islets", "setting": "[3]", "result": "high specific marking"}, {"measurement": "specificity of interaction (brown DAB coloration)", "setting": "[1]", "result": "more localized in the CAPAN2 cells"}, {"measurement": "co-localization with glucagon (anti-glucagon antibody)", "setting": "[4]", "result": "did not co-localize"}, {"measurement": "co-localization with insulin (anti-insulin antibody)", "setting": "[4]", "result": "perfect co-localization"}, {"measurement": "RRFL higher than the RRFL produced by the anti-FXYD2-gamma-a polyclonal antibody", "setting": "[5]; CAPAN2 cells, 5 μM", "result": 791, "unit": "%"}, {"measurement": "RRFL higher than the RRFL produced by the anti-FXYD2-gamma-a polyclonal antibody", "setting": "[5]; CAPAN2 cells, 10 μM", "result": 945, "unit": "%"}, {"measurement": "green fluorescence pattern in CAPAN 2 cells", "setting": "[5]; CAPAN2 cells, DAPI nuclear stain", "result": "correspondent to the blue fluorescent pattern of DAPI"}, {"measurement": "green fluorescence in PANC1 cells", "setting": "[5]; PANC1 cells", "result": "few green fluorescent spots"}]}, {"molecule": "NTHHTSM [P90]", "values": [{"measurement": "dissociation constant (Kd)", "setting": "[2]", "result": "could not be determined"}, {"measurement": "specificity of interaction (brown DAB coloration)", "setting": "[1]", "result": "less specific compared to P88"}]}, {"molecule": "USPIO-P88: USPIO nanoparticles coupled to P88, MRI contrast agent (LPLSRHYGGGSVPFYSHSNTHHTSM; also: coupled to USPIO nanoparticles, site not given here)", "values": [{"measurement": "MRI labeling of CAPAN2 cells", "setting": "[6]", "result": "clear labeling"}, {"measurement": "transverse relaxation rates of labeled CAPAN2 cells compared to USPIO-PEG", "setting": "[6]", "result": "higher"}, {"measurement": "amount of iron captured by the CAPAN2 cells compared to USPIO-PEG", "setting": "[7]", "result": "always higher"}, {"measurement": "MRI labeling of human Langerhans islets compared to USPIO-PEG", "setting": "[8]; also at low concentration and in non-pure islet samples", "result": "clear difference"}, {"measurement": "transverse relaxation rates of labeled human Langerhans islets compared to USPIO-PEG", "setting": "[8]", "result": "higher"}, {"measurement": "co-localization of labeled Langerhans islets with the red fluorescence of insulin", "setting": "[9]", "result": "perfectly co-localized"}]}, {"molecule": "silane coated iron oxide nanoparticles-P88: carboxy silane coated iron oxide nanoparticles coupled to P88 (LPLSRHYGGGSVPFYSHSNTHHTSM; also: coupled to carboxy silane coated iron oxide nanoparticles, site not given here)", "values": [{"measurement": "MRI labeling of CAPAN2 cells", "setting": "[6]", "result": "clear labeling"}, {"measurement": "transverse relaxation rates of labeled CAPAN2 cells compared to USPIO-PEG", "setting": "[6]", "result": "higher"}, {"measurement": "amount of iron captured by the CAPAN2 cells compared to USPIO-PEG", "setting": "[7]", "result": "always higher"}, {"measurement": "transverse relaxation rates of labeled human Langerhans islets compared to USPIO-PEG", "setting": "[8]", "result": "higher"}, {"measurement": "co-localization of labeled Langerhans islets with the red fluorescence of insulin", "setting": "[9]", "result": "perfectly co-localized"}]}, {"molecule": "LPLSRHY (also: biotinylated in ICC tests, site not given here)", "note": "[P89]", "values": [{"measurement": "Kd", "setting": "[10]", "result": 109000, "unit": "nM"}]}, {"molecule": "LPLSRHYGGGSVPFYSHSNTHHTSM (also: biotinylated in ICC/IHC/IF tests, site not given here)", "note": "[P88]", "values": [{"measurement": "relative rate of fluorescent labeling (RRFL) in CAPAN2 cells against the anti-FXYD2-gamma-a polyclonal antibody", "setting": "[11]", "result": 791, "unit": "% higher"}, {"measurement": "relative rate of fluorescent labeling (RRFL) in CAPAN2 cells against the anti-FXYD2-gamma-a polyclonal antibody", "setting": "[12]", "result": 945, "unit": "% higher"}]}, {"molecule": "B1", "values": [{"measurement": "Kd", "setting": "[13]", "result": 9.3, "unit": "nM"}]}]}
